Tested on: CTP synthase
Assay: Determination of CTP synthase Michaelis-Menten constants Km and Vmax (CTP formation kinetics from UTP, LC-MS/MS)
Type: biochemical, human
Conditions: initial UTP 0 to 6 mM
Method: The cell extracts may be obtained from cultured cells (primary cultures of cells, blasts or cell lines), from blood derived cells. Particularly, mononuclear cells (PBMCs, peripheral blood mononuclear cells) have been isolated from peripheral blood. The cells were washed with phosphate buffer 0.1 M KH2PO4, pH=7.4, and then collected in HEPES buffer 70 mM, pH=8.0, containing 10 mM NaF and protease inhibitors leupeptin and pepstatin to the concentration of 10 μg/mL. The cells were immediately placed in a bath of ethanol and dry ice, and then placed for at least 1 hour at −80° C. The cells were then centrifuged for 30 minutes at 10 000 g at 4° C. The supernatant, containing the cytosolic fraction, was collected and contained proteins were dosed. One to 10 µg of proteins, prepared as described above, were used for measuring CTP synthase activity in a reaction mixture containing 4 μM internal standard, 1.25 mM UTP, 1.25 mM ATP, 0.31 mM GTP, 12.5 mM glutamine, 1.25 mM phosphoenolpyruvate, 0.62 mM EDTA and 10 mM NaF in 15 μL complete HEPES buffer 70 mM, pH=8.0. Enzymatic reaction was carried out at 37° C. for 90 minutes and then, the reaction tubes were cooled on ice and the enzymatic reaction was stopped by adding 15 μL HCLO4 1 M. The reaction tubes were vortexed and centrifuged for 5 minutes at 12 000 g at 4° C. The supernatants were diluted with the aqueous mobile phase A and transferred to a 384-well plate. Analyses were performed using a Waters chromatographic UPLC system (Acquity™ UPLC) connected to a Waters TQD quadrupole mass spectrometer, operated in the electrospray positive ion mode with selected reaction monitoring (SRM). […] Waters HSS T3, 1.8 μm particle size, 2.1×100 mm column, which was maintained at 30° C. throughout the analysis. The flow rate was 0.5 mL/min. Mobile phase A was 5 mM dibutylamine acetate in water and mobile phase B, 5 mM dibutylamine acetate in acetonitrile. Three distinct mobile-phase gradients were used (see Tables 6a to 6c below). Then the enzymatic constants of Michaelis-Menten, Km and Vmax were determined by performing CTP formation kinetics during 90 minutes by using initial concentrations of UTP ranging from 0 to 6 mM. The values obtained for Vmax and Km were of the same order of magnitude as those previously published with radio-isotopic methods (FIG. 4).

SMILES: O=c1ccn([C@@H]2O[C@H](COP(=O)(O)OP(=O)(O)OP(=O)(O)O)[C@@H](O)[C@H]2O)c(=O)[nH]1 [UTP, uridine triphosphate]
- Vmax (PBMCs activated, 90 minutes): 0.379 ± 0.091 nmol/min
- Vmax (activated PBMC protein extracts, 90 min): 0.3789 ± 0.091 nmol/min
- Vmax (resting PBMC protein extracts, 90 min): 0.083 ± 0.02 nmol/min
- Vmax (resting cells, 90 minutes): 0.083 ± 0.02 nmol/min

Source: patent US10731197B2, “Methods for detecting or quantifying CTP and CTP synthase activity” (Assistance Publique-Hopitaux de Paris, priority 2015, dated 2020)
